# Assay results published in patent US11458083B2, “Cosmetic and/or dermatological composition containing a merocyanine derivative comprising specific polar groups consisting of hydroxyl- and ether-functionalities” (L'OREAL, priority 2011, dated 2022).
# Assay: UV shielding properties: UV spectra in ethanol
# Assay type: physicochemical
# Design: Absorption maximum λmax: unit not given here
# Details: UV spectrum in ethanol
# Text: The UV shielding properties of the merocyanine derivatives are investigated by measuring their UV spectra in ethanol. In the following table the investigated absorption maxima (Amax) together with the corresponding A^1%1cm values are listed.
SMILES,A^1%1 cm at absorption maximum,Absorption maximum λmax
CCOC(=O)/C(C#N)=C/C=C/N(CCOC)CCOC [Compound 1],2283,380
COCCOC(=O)/C(C#N)=C/C=C/N(CCOC)CCOC [Compound 2],2046,380
CCOCCOC(=O)/C(C#N)=C/C=C/N(CCOC)CCOC [Compound 3],1965,380
CCOCCOC(=O)/C(C#N)=C/C=C/N1CCCCC1 [Compound 4],2568,381
COCCOCCOC(=O)/C(C#N)=C/C=C/N1CCCCC1 [Compound 5],2252,381
N#C/C(=C\C=C\N1CCCCC1)C(=O)NCCO [Compound 6],2530,380
N#C/C(=C\C=C\N1CCCCC1)C(=O)OCC(O)CO (centres unmarked) [Compound 7],2467,381
N#C/C(=C\C=C\N1CCOCC1)C(=O)OCC(O)CO (centres unmarked) [Compound 9],2414,380
CCCCOC(=O)/C(C#N)=C/C=C/N(CCO)CCCC [Compound 12],2235,381
CCOC(=O)/C(C#N)=C1\C=C(NCCCOC)CCC1 [Compound 14],2207,385
COCCCNC(=O)/C(C#N)=C1\C=C(NCCCOC)CCC1 [Compound 15],1644,385
CCCCC(CC)CNC1=C/C(=C(/C#N)C(=O)NCCO)CCC1 (centres unmarked) [Compound 16],1618,386
CC(C)COC(=O)/C(C#N)=C1\C=C(NCC(C)O)CCC1 (centres unmarked) [Compound 17],2083,385
CCCCCCCCOC(=O)/C(C#N)=C/C=C/N(CC)CCO [Compound 18],2036,385
CCCN(/C=C/C=C(\C#N)C(=O)OCC(O)CO)CCC (centres unmarked) [Compound 23],2230,381
"CCOCCOC(=O)/C(C#N)=C1\C=C(NCCCOC)CCC1 [Compound 25, 2-ethoxyethyl (2Z)-cyano{3-[(3-methoxypropyl)amino]cyclohex-2-en-1-ylidene}ethanoate]",1947,385

# Assay: Photostability of the UV filters in a formula film exposed to a solar simulator (HPLC)
# Assay type: physicochemical
# Details: in composition Example 9 (with 1% merocyanine compound 4), film about 20 μm, UVA dose 42 J/cm^2
# Text: The percentage of residual amount of each UV filter (merocyanine compound and dibenzoylmethane compound) caused by the exposure to a solar simulator of a formula spread in a film having a thickness of about 20 μm was measure. The evaluation was done by HPLC analysis of each UV filter in a solution after extraction of the film, by comparing exposed and non-exposed samples. Solar simulator: Apparatus Oriel […] equipped with a 4 pouces outlet, a 81017 filter and a dichroic mirror. The samples were exposed in horizontal position. The UV exposure was characterized by: • a UVB flux of 0.35-0.45 mW/cm^2 • a UVA flux 16-18 mW/cm^2. Each residual amount of each UV filter was measured by HPLC chromatography with a sensor having diodes bars. About 20 mg of the composition are spread on the surface of a rough melt silica disc. 3 films of composition were exposed to the solar simulator and 3 other films were used as control. The samples were exposed 3 per 3 to the light of the simulator during a sufficient time delivering an UVA dose of 42 J/cm^2. At the end of the exposure, the disc was introduced in a bowl of 600 ml with 10 ml of appropriate solvent (ie generally ethanol). The disc and the bowl were then placed during 5 minutes in an ultrasonic tank.
row,SMILES,% of residual Avobenzone after UV exposure [%]
1,"COc1ccc(C(=O)CC(=O)c2ccc(C(C)(C)C)cc2)cc1 [Avobenzone, 4-(tert-butyl)-4′-methoxydibenzoylmethane, reference compound]",91

# Same assay, conditions: in composition Example 9 (with 2% avobenzone), film about 20 μm, UVA dose 42 J/cm^2
row,SMILES,% of residual merocyanine compound 4 after UV exposure [%]
1,CCOCCOC(=O)/C(C#N)=C/C=C/N1CCCCC1 [Compound 4],85

# Assay: Storage (chemical) stability in water/ethanol solution, UPLC
# Assay type: physicochemical
# Details: 0.5% in water/ethanol 1/1, 45° C.
# Procedure: The chemical stability of the compounds can be assessed in a water/ethanol solution 1/1 with compounds solubilized at 0.5%.
# (§1) Once the solution prepared, it is placed in an oven at 45° C. for 2 months for stability and 1 h at 60° C. for acidic stress. Then the solution is aliquoted (0.005% w/v in H2O/ACN 50/50) for liquid chromatography analysis to check disappearance or not.
# (§2) UPLC Acquity (Waters) with diod array detector eλ (Waters).
# (§3) Column: Acquity HSS T3 (Waters), length: 50 mm, Inner diameter: 2.1 mm, particles diameter 1.8 μm. Mobile phase A=ammonium acetate 20 mM, B=Acetonitrile.
# (§4) • Flow rate: 0.5 mL/min • T: 20° C. • Detection at UV 383 nm
row,SMILES,Storage stability 2 months 45° C.
1,COCCCNC(=O)/C(C#N)=C1\C=C(NCCCOC)CCC1 [Compound 15],No loss
2,"CCOCCOC(=O)/C(C#N)=C1\C=C(NCCCOC)CCC1 [Compound 25, 2-ethoxyethyl (2Z)-cyano{3-[(3-methoxypropyl)amino]cyclohex-2-en-1-ylidene}ethanoate]",No loss

# Assay: Acid media stability (HCl 0.1M), UPLC
# Assay type: physicochemical
# Details: HCl 0.1M in water/ethanol/isopropanol 50/40/10 (v/v/v), 1 h at 60° C.
# Procedure: These solutions could be acidified to check also stability toward acid media for example HCl 0.1M in a water/ethanol/isopropanol 50/40/10 (v/v/v).
# as §1, §2, §3, §4
row,SMILES,Acid media stability 1 h 60° C. (loss)
1,COCCCNC(=O)/C(C#N)=C1\C=C(NCCCOC)CCC1 [Compound 15],Loss 100%
2,"CCOCCOC(=O)/C(C#N)=C1\C=C(NCCCOC)CCC1 [Compound 25, 2-ethoxyethyl (2Z)-cyano{3-[(3-methoxypropyl)amino]cyclohex-2-en-1-ylidene}ethanoate]",Loss 4%
